Source: patent US20110251285A1, “COMBINATIONS OF PRESERVATIVES FOR OPHTHALMIC COMPOSITIONS” (ALLERGAN, INC., priority 2010, published 2011)

Test system: S. aureus, P. aeruginosa, c. albicans, E. coli and/or A. niger
Assay: abbreviated preservative efficacy test against USP, EP-A and EP-B criteria
Format: cell-based
Settings: 20 ppm BAK alone
Method: Each of these formulations is tested by performing an abbreviated preservative efficacy test using test organisms S. aureus, P. aeruginosa, c. albicans, E. coli and/or A. niger. The formulations are tested against United States Pharmacopeia Preservative Efficacy Test (USP), European Pharmacopeia Efficacy Test-A (EP-A) and European Pharmacopeia Efficacy Test-B (EP-B) criteria as indicated. Ten (10) ml of each formulation is challenged with approximately 10^5 cfu/ml of test organism. At appropriate time intervals, the amount of bacterial and fungal survivors are assayed using Dey Engley broth (DE) as the neutralizer media. DE, along with filtration, is sufficient at neutralizing the antimicrobial agents in the compositions. One (1) ml of each sample is diluted into nine (9) ml of DE. One (1) ml of the 1:10 dilution is filtered through a 0.45 µm filter and washed with 100 ml of a saline/polysorbate 80 solution. After washing the filtrate a second time with 100 ml of saline/polysorbate 80 solution, the filtrate is placed onto a TSA plate for bacteria and SAB for fungi.

Substance: benzalkonium chloride [BAK]
- Ph Eur-B & A criteria: failed
